These results are taken from patent publication US5486531A, “Hydroxymethylfurazancarboxylic acid derivatives” (Cassella Aktiengesellschaft, priority 1993, dated 1996).

pIC50: −log10 of the molar value. Counter-ions that a name gives are not always drawn.

In the first test the test system is spiral strips of the arteria pulmonalis of the guinea pig. Description: relaxing effect on spiral strips of guinea pig arteria pulmonalis, contraction elicited by CaCl2 after depolarization with potassium (modified Godfraind and Kaba / Schuman). To be noted: Cavia porcellus, read-out: IC50 (concentration of the test substance which inhibits the contraction by 50%). Format: cell-based. The method, then: For this, spiral strips of the arteria pulmonalis of the guinea pig are depolarized,following equilibration in calcium-free Tyrode solution, with 40 mmol/l potassium. Addition of 0.5 mmol/l CaCl2 then elicits a contraction. The relaxing effect of the test substance is determined by adding it cummulatively.
As to `O=[N+]([O-])O[C@@H]1CO[C@H]2[C@@H]1OC[C@@H]2O` [Isosorbide 5-mononitrate, isosorbide 5-mononitrate, reference compound], the pIC50 was less than 4.00.

Staying with this test, now noted: Cavia porcellus; depolarized with 40 mmol/l potassium, contraction by 0.5 mmol/l CaCl2; cumulative addition; average value from 4 to 6 vessel strips; read-out: IC50 (concentration of the test substance which inhibits the contraction by 50%).
Turning to `NC(=O)c1c(CO)no[n+]1[O-]` [Compound 3 I, 4-Hydroxymethyl-2-oxyfurazan-3-carboxamide], the pIC50 is 4.92.

In the case of `CC(C)NC(=O)c1c(CO)no[n+]1[O-]` [Compound 1 I, 4-Hydroxymethyl-N-isopropyl-2-oxyfurazan-3-carboxamide], the pIC50 is 5.10.

For `CCOC(=O)[N-]c1cn(N2CCOCC2)n[o+]1` [Molsidomine, molsidomine, reference compound], the pIC50 was 3.52.

Consider `C[C@@H](NC(=O)c1c(CO)no[n+]1[O-])c1ccccc1` [Example 24, 4-Hydroxymethyl-N-((R)-1-phenylethyl)-2-oxyfurazan-3-carboxamide], for which the pIC50 was 5.70.

Regarding `O=C(NCc1cccnc1)c1c(CO)no[n+]1[O-]` [Example 8, 4-Hydroxymethyl-N-(3-pyridylmethyl)-2-oxyfurazan-3-carboxamide hydrochloride], the pIC50 was 5.10.

With `COCCNC(=O)c1c(CO)no[n+]1[O-]` [Example 18, 4-Hydroxymethyl-N-(2-methoxyethyl)-2-oxyfurazan-3-carboxamide], the pIC50 was 5.10.

Regarding `NS(=O)(=O)c1ccc(CCNC(=O)c2c(CO)no[n+]2[O-])cc1` [Example 26, 4-Hydroxymethyl-N-[2-(4-sulphamoylphenyl)-ethyl]-2-oxyfurazan-3-carboxamid], the pIC50 is 4.96.

`C[C@H](NC(=O)c1c(CO)no[n+]1[O-])c1ccccc1` [Example 23, 4-Hydroxymethyl-N-((S)-1-phenylethyl)-2-oxyfurazan-3-carboxamide]: the pIC50 is 4.82.

Regarding `CNC(=O)c1c(CO)no[n+]1[O-]` [Example 4 I, 4-Hydroxymethyl-N-methyl-2-oxyfurazan-3-carboxamide], the pIC50 is 5.14.
